Experimental data: PMC2874192 (Cancer research, 2010)

Tests used:
[1] = no reference given; cited from earlier work
[2] = humans, within 24 h, primarily through kidneys; cited from earlier work
[3] = test system: CXCR4 receptor; details: Cu-bound vs unbound AMD3100; cited from earlier work
[4] = test system: U87 and U87-stb-CXCR4 glioblastoma xenografts; assay type: in vivo; details: whole body image at 90 min
[5] = test system: U87 and U87-stb-CXCR4 glioblastoma xenografts; experiment: Ex vivo biodistribution in subcutaneous brain tumor model; set-up: species or system NOD/SCID mice; details: 740 kBq, 90 min after injection

Structure (SMILES)	plasma protein bound [1] [%]	drug eliminated as parent [2] [%]	increase of affinity to the CXCR4 receptor by Cu bound to the cyclam [3] [fold]	distribution of radiotracer (PET) [4]	radioactivity distribution (ex vivo biodistribution) [5]
c1cc(CN2CCCNCCNCCCNCC2)ccc1CN1CCCNCCNCCCNCC1 [AMD3100]	~58	~70	6	–	–
[Cl][64Cu][Cl] [[^64Cu]CuCl2]	–	–	–	uniform distribution	uniform
